Source: paper doi:10.1101/2023.03.03.530471v2 (bioRxiv, 2023)

Key:
[1] = molecular target: recombinant full length PICK1 (Rattus norvegicus, UniProt Q9EP80); test: SEC of recombinant PICK1 incubated with mPD5; assay type: binding; conditions: PICK1 40 µM + mPD5 10 µM (4:1), Superdex200 Increase 10/300; PICK1 alone 10.9 mL
[2] = Solubility by visual inspection; assay type: physicochemical; conditions: 10 mM PBS, molar equivalent of 250 mg/mL
naive mice = test: Barnes maze, spatial learning and memory; assay type: in vivo, mouse

recombinant full length PICK1, sequence (Q9EP80 whole entry): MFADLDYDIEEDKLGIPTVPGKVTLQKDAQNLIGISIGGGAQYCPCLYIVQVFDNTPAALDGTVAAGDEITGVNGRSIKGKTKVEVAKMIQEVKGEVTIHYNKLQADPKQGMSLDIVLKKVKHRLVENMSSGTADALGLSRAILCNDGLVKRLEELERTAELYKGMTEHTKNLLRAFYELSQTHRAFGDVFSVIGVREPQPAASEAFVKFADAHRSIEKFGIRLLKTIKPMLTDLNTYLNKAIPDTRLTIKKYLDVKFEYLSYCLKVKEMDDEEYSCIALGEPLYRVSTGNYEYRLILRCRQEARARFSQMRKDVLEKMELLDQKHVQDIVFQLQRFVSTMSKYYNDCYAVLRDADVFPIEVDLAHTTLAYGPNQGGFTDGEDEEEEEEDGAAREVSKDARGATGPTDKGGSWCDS

CCCCCCCCCCCCCC(=O)N(CCOCCOCCC(=O)N[C@@H](Cc1c[nH]cn1)C(=O)N[C@@H](Cc1c[nH]c2ccccc12)C(=O)N[C@@H](CC(C)C)C(=O)N[C@@H](CCCCN)C(=O)N[C@H](C(=O)O)C(C)C)CCOCCOCCC(=O)N[C@@H](Cc1c[nH]cn1)C(=O)N[C@@H](Cc1c[nH]c2ccccc12)C(=O)N[C@@H](CC(C)C)C(=O)N[C@@H](CCCCN)C(=O)N[C@H](C(=O)O)C(C)C [mPD5, myristoyl-NPEG4-(HWLKV)2]
peak elution volume of PICK1 in presence of mPD5 [1]: two peaks at 8 mL and 9 mL | solubility in PBS [2]: ≥ 130 mM | total distance moved, probe test day five (naive mice; s.c. 10 µmol/kg 60 min before maze): no difference | total distance moved, following reversal learning (naive mice; s.c. 10 µmol/kg, probe test day nine): no difference was observed
